Laboratory results from US20250073209A1, “COVALENT TARGETING OF RhoA FOR CANCER THERAPY” (The University of Hong Kong, priority 2023, published 2025).

Tests used:
HCT116 cells = assay: F-actin staining (Alexa Fluor 488-Phalloidin), serum re-stimulation; format: cell-based, human; details: HCT116, 24 h, 10% FBS re-stimulation 10 min
Protocol: To further validate the inhibitory effects of CL16 on RhoA, HCT116 and HT29 cells were transfected with a FRET-RhoA biosensor, where cells with elevated RhoA activity would show a higher FRET/mTFP1. Specifically, HCT116 cells transfected with FRET-RhoA biosensor were treated with CL16 or solvent in serum-free medium for 24 h, washed with PBS, re-stimulated with 10% FBS for 10 min, washed, and then imaged in HBSS by confocal fluorescence microscopy. […] In addition, HCT116 cells were serum-starved and treated with CL16 or Rhosin for 24 h, followed by 10% FBS re-stimulation for 10 min. The cells were then washed and fixed by 4% paraformaldehyde, washed with PBS and stained with Alexa Fluor 488-Phalloidin in PBS (1:20, v/v) at room temperature for 15 min. The cells were washed with PBS, incubated with Hoechst (8.2 μM) in PBS for 15 min, washed and then imaged in PBS by confocal fluorescence microscopy. […] Since RhoA regulates cytoskeletal dynamics and RhoA activation can induce the formation of contractile F-actin, the reduction of F-actin fibers by CL16 treatment supports its inhibitory roles on RhoA signaling.

[1] = test system: HT29 cells expressing RhoA WT; assay: Wound healing assay on HT29 cells expressing RhoA WT; format: cell-based, human; details: 48 h
Protocol: For wound healing assay, HT29 cells were seeded in 90% confluency, a wound was scratched using a P-20 tip the next day. Cell debris was washed with PBS then aspirated. Then, complete DMEM medium with CL16 or Rhosin with corresponding concentration was added to the cells. Wound closure was recorded every 24 hours under light microscope with 10× objective and measurement of wound area was made by ImageJ.
The effects of CL16 in HT29 cells expressing RhoA WT protein and HT29 cells with RhoA C16 Å knock-in by CRISPR-Cas9 were investigated, respectively, to validate the molecular mechanism of RhoA inhibition and anti-cancer properties from CL16. […] HT29 cells expressing RhoA WT or C16 Å protein were incubated with solvent vehicle, CL16 or Rhosin in complete medium for 24 h. The cells were then washed, lysed, subjected to rhotekin pull-down and immunoblotted. […] Wound healing assay on HT29 cells expressing RhoA WT or C16 Å protein were incubated with solvent vehicle, CL16 or Rhosin in complete medium for 48 h (FIGS. 19A and 19B).

HT29 xenograft = assay: Mouse HT29 xenograft model; format: in vivo
Protocol: FIG. 7A is a graph showing inhibition of tumor growth by CL16 in mouse HCT116 xenografts through intraperitoneal injection at 10 mg/kg (n=6 per group). FIG. 7B is a graph showing inhibition of tumor growth by CL16 in mouse HT29 xenografts through intraperitoneal injection at 10 mg/kg (n=7). FIG. 7C is a graph showing the body weight of mice with HT29 xenografts throughout the treatment with CL16. FIG. 7D is a graph showing inhibition of tumor growth by CL16 in mouse SW620 xenografts through intraperitoneal injection at 10 mg/kg (n=6 per group). FIG. 7E is a bar graph showing the tumor weight of harvested tumors from the treated mice with SW620 xenografts. FIG. 7F is a graph showing the body weight of mice with SW620 xenografts throughout the treatment with CL16. Statistical analysis using a two-tailed Student's t-test. *P<0.05.
7-week-old mice with weight around 20 g were inoculated subcutaneously with HCT116 (2×10^6 cells per mouse) or HT29 (3×10^6 cells per mouse) cells, in serum-free RMPI or Matrigel in PBS respectively. […] The tumor volume and body weight of the nude mice were measured throughout the treatment. The tumor volume was calculated by the equation: Volume (mm^3)=1×w^2/2, where 1 and w were the length and width of the tumor. At the end of the treatment, the mice were sacrificed and the tumor weight was measured. […]

RhoA = RhoA (Homo sapiens, UniProt P61586); assay: Gel-based competitive ABPP (iodoacetamide-rhodamine) on purified RhoA; set-up: purchased ab101594; details: competition with IA-Rh, dose-dependent experiments; read-out: IC50 of the competitive binding / in vitro RhoA binding
Protocol: Recombinant human RhoA (0.1 μg; ab101594) was pretreated with cysteine-reactive compounds or DMSO for 1 hour at room temperature, followed by incubation with iodoacetamide-rhodamine (IA-Rh; 1 μM) for 1 hour at room temperature. The reaction was then quenched by boiling in sampling buffer. Samples were subjected to SDS-PAGE to separate proteins bands. In-gel fluorescence intensity was measured with a Chemidoc using setting for Rhodamine. Gel was subsequently stained with silver stain (Pierce) for visualization of protein content and covalent modification. Band intensity was quantified using ImageJ.
CL16 was identified for its strong and specific binding with RhoA in covalent ligand screening experiment by ABPP. ABPP is known as a powerful platform for covalent ligand screening, particularly for the identification of lead compounds targeting new hotspots for therapy. Competitive gel-based activity-based protein profiling (ABPP) experiment was performed on purified RhoA protein for screening its interactions with a library of cysteine-reactive covalent ligands with acrylamide or chloroacetamide warheads. RhoA protein for the first screening and on Rac1 and Cdc42 for the second screening to identify lead compounds with specific binding onto RhoA Cys16. […] The reaction mixture was then resolved by SDS-PAGE and in-gel fluorescence was imaged (FIG. 1A). […]

Sequence of RhoA (P61586 whole entry): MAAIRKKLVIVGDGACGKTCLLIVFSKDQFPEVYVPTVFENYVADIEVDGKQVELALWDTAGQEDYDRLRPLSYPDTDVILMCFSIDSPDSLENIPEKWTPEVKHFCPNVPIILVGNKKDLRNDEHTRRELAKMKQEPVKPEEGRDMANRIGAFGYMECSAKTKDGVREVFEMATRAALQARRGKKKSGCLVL

## O=C(CCl)N1N=C(c2cc3ccccc3o2)CC1c1ccco1 (centres unmarked) [CL16]
HCT116 cells
  concentration from which reduction of F-actin fibers was observed: ≥ 5 µM
[1]
  cell migration: decrease in cell migration
HT29 xenograft; HT29 xenografts, FIG. 7C
  body weight, treated vs untreated: no observable difference
HT29 xenograft; nude mice, 10 mg/kg intraperitoneal
  tumor growth vs vehicle control: significantly inhibited tumor growth
RhoA
  IC50: 0.44 µM
